From patent US5242945A, “Tetronic and thiotetronic acid derivatives as phospholipase A2 inhibitors” (American Home Products Corporation, priority 1991, dated 1993)
Read-outs that look alike come from different tables or passages of the source.

Tests used:
[1] = system: purified PLA2, from the diamond back cotton mouth snake (A. piscivorus piscivorus); assay: in vivo PLA2 murine paw edema assay; design: species or system A. piscivorus piscivorus PLA2 in CD-1 mice; conditions: p.o.; at +10 min
Experimental: The ability of the compounds of the invention to inhibit paw edema induced by the exogenous administration of PLA2 is measured in the in vivo PLA2 murine paw edema assay.
Non-fasted, male CD-1 mice (8 weeks old; 31-36 grams) are placed in plastic boxes in groups of six. The right hind paw volume is measured using mercury plethysmography (zero time). Compounds are dosed orally (0.5 mL of 0.5% Tween-80) 1 or 3 hours prior to PLA2 injection or intravenously (0.2 mL in 0.3% dimethylsulfoxide/saline) 3 minutes prior to PLA2 injection. A solution of purified PLA2, from the diamond back cotton mouth snake (A. piscivorus piscivorus) is prepared in saline at a concentration of 6 μg/mL. Fifty (50) μL (0.3 μg) of this PLA2 solution is injected subcutaneously into the right hind paw with a plastic 1 mL plastic syringe (27 gauge, 1" needle). Paw volume of the injected paw is measured again at 10 minutes, 30 minutes and 60 minutes after PLA2 injection. Animals are euthanized with CO2 at the completion of the study.
The paw edema is calculated by subtracting the zero time volume from the volume recorded at each time period. Mean paw edema for each treatment group is then calculated and expressed as (μL±S.E.). Drug effects are expressed as a percent change from control (vehicle) values. Statistical significance is determined by a one-way analysis of variance with LSD comparison to control (p<0.05). ED50 's are determined using […].

human platelet PLA2 = target: T1, human platelet PLA2 (Homo sapiens, UniProt P14555); assay: in vitro isolated phospholipase A2 assay, human platelet PLA2; assay type: biochemical; conditions: at 10 μM; + values given without explanation; read-out: % Inhibition HP (human platelet)
T1 construct: platelet acid extract PLA2; from tissue; host or cells: human platelets, semipurified acid extract
T1 sequence (P14555 21-144): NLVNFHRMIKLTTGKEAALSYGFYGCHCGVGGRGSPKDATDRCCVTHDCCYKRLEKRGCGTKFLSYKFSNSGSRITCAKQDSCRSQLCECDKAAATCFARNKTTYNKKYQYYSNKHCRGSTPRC
Experimental: (§1) The compounds of the invention are tested in an in vitro isolated phospholipase A2 assay to determine the ability of the test compounds to inhibit the release of arachidonic acid from an arachidonic acid-containing substrate by the action of phospholipase A2 enzyme from human and non-human sources.
(§2) Into a 15 mL polypropylene tube are added the following:
(§3) ^3 H-AA E. coli substrate^1
(§4) Tris-HCl (0.5 M) pH 7.5^3
(§5) PLA2 25 Volume yielding 12%
(§6) 100 hydrolysis in 10 min.
(§7) *pre-incubate at room temperature 30 min prior to substrate addition.
(§8) ^6 Two human PLA2 enzymes are used: a) Semipurified human
(§9) platelet acid extract PLA2 (in 10 mM sodium acetate buffer, pH 4.5).
(§10) Remove protein precipitate by centrifugation at about 2200 rpm for 10
(§11) minutes. b) Purified human synovial fluid.
(§12) Incubate the 100 μL reaction mixture for 10 minutes at 37° C. in a shaking water bath. The reaction is terminated by the addition of 2 mL tetrahydrofuran, followed by vortexing. NH2 columns (100 μg/mL--Analytichem International) are conditioned with 0.5 mL tetrahydrofuran followed by 0.5 mL tetrahydrofuran/water (2 mL:0.1 mL, v/v).
(§13) The sample is loaded onto the columns and slowly drawn through them. The hydrolyzed arachidonic acid retained in the columns is eluted therefrom with 1 mL tetrahydrofuran/glacial acetic acid (2%). The arachidonic acid is transferred to scintillation vials and quantitated by β-counting analysis. A "total counts" sample is prepared by pipetting 25 μL ^3 H-arachidonate E. coli directly into a scintillation vial to which is added 1 mL tetrahydrofuran. 10 mL aquasol (scintillation cocktail) is added to all samples.

[2] = target: T2, human synovial fluid PLA2 (Homo sapiens, UniProt P14555); assay: in vitro isolated phospholipase A2 assay, human synovial fluid PLA2; assay type: biochemical; conditions: at 10 μM; + values given without explanation; read-out: % Inhibition HSF (human synovial fluid)
T2 construct: Purified human synovial fluid; from tissue; host or cells: human synovial fluid
T2 sequence (P14555 21-144): T1 sequence (P14555 21-144)
Experimental: as §1, §2, §3, §4, §5, §6, §7, §8, §9, §10, §11, §12, §13

cyclooxygenase (PGE2) = assay: resident murine peritoneal macrophage assay, PGE2; assay type: cell-based, mouse (Swiss Webster); conditions: for inhibition at 0.5 µM / inhibition at 1 µM: read-out: PGE2 zymosan % Inhibition
Experimental: (§14) The ability of the compounds of the invention to act as inhibitors of the enzymes 5-lipoxygenase and cyclooxygenase is measured in the resident murine peritoneal macrophage assay.
Resident peritoneal macrophages are collected from female Swiss Webster mice (49 days old, 20-25 gms, Buckshire) by lavaging with 7-8 ml Hanks Balanced Salt Solution (HBSS) without Ca^++ and Mg^++ (GIBCO). The lavage fluid from several mice is pooled and centrifuged at 4° C. for 10 minutes at 400 xg. The cell pellet is resuspended in Medium 199 (GIBCO) with HEPES buffer containing 100 μg/ml gentamicin. Two ml of the cell suspension (4×10^6 cells) are then plated on 35 mm culture dishes (Nunc).
A macrophage monolayer is established after a 1-1.5 hour incubation of the cells at 37° C. in an atmosphere of […] and 5% CO2. The monolayers are washed 2× with 2 ml HBDSS, containing Ca^++ and Mg^++ after which 2 ml Medium 199 supplemented with 10% freshly thawed heat-inactivated fetal bovine serum and 100 μg/ml gentamicin is added for an overnight incubation.
(§15) Residual serum and cellular debris are removed from the monolayers by washing 3× with 2 ml HBSS containing Ca^++ and Mg^++. Macrophages are preincubated for 5 minutes with 1 ml serum-free M199 containing 10 μl dimethyl sulfoxide (DMSO) vehicle or test compound prior to cell activation with zymosan ([…]) or arachidonic acid (AA) (2 μM). After 2 hours, the supernatants are removed and either assayed for LTC4 and PGE2 by radioimmunoassay (RIA) directly or stored at -20° C. In all cases, results are expressed as ng metabolite/4×10^6 cells.
(§16) Raw data (dpm) may be stored directly onto an "Autostart" tape using the HP85 in room C-096. The raw data are converted to ng metabolite/4-10^6cells using the standard curve by a "RIANAL" program (HP85) or a "NONLIN" program (HP9816). Results are then expressed as percent inhibition of zymosan induced, leukotriene or prostaglandin synthesis (control) using the equation: [formula]

5-lipoxygenase (LTC4) = assay: resident murine peritoneal macrophage assay, LTC4; assay type: cell-based, mouse (Swiss Webster)
Experimental: as §14
Resident peritoneal macrophages are collected from female Swiss Webster mice (49 days old, 20-25 gms, Buckshire) by lavaging with 7-8 ml Hanks Balanced Salt Solution (HBSS) without Ca^++ and Mg^++ (GIBCO). The lavage fluid from several mice is pooled and centrifuged at 4° C. for 10 minutes at 400 xg.
as §15, §16

TPA-induced ear edema = assay: 12-o-tetradecanoylphorbol acetate (TPA)-induced murine ear edema assay; assay type: in vivo, mouse (Swiss Webster); conditions: TPA; topical, 200 μg, vehicle acetone
Experimental: The ability of the compounds of the invention to inhibit inflammatory responses is examined in the in vivo arachidonic acid (AA)/12-o-tetradecanoylphorbol acetate (TPA)-induced murine ear edema assay.
Swiss Webster female mice (Buckshire), approximately 8 weeks old are placed into plastic boxes in groups of six. Eight groups of mice receive AA topically on the right ear, and another 8 groups receive TPA topically on the right ear. AA and TPA are dissolved in acetone at concentrations of 100 mg/ml and 100 μg/ml respectively. The phlogistics are applied to the right ear by the means of an automatic pipet. Volumes of 10 μl are applied to the inner and outer surfaces of the ear. Each mouse receives either 2 mg/ear AA or 2 μg/ear TPA. The left ear (control) receives acetone delivered in the same manner. Topical and subcutaneous dosing regimens are as follows 1) drugs are given 30 minutes prior to AA treatment and 2) drugs are given 30 minutes after treatment with TPA.
Measurements are taken with Oditest calipers, 0-10 mm with 0.01 graduations. The right and left ears are measured after 1 hr AA-induced inflammation and 4 hours after TPA-induced inflammation.
The difference between right and left ear thickness is calculated and the significance is determined by a one way analysis of variance with Dunnett's comparisons to control (P=0.05). Drug effects are expressed as a percent change from control values: [formula]

[3] = zymosan stimulation, dose not given
[4] = Mus musculus, Peritoneal macrophage, zymosan stimulation
[5] = Mus musculus, Peritoneal macrophage, zymosan stimulation, 0.2 μM

Row | Compound | inhibition at 10 µM (human platelet PLA2) [%] | inhibition at 10 µM [2] [%] | inhibition at 0.1 µM (cyclooxygenase (PGE2); [4]) [%] | inhibition at 0.5 µM (cyclooxygenase (PGE2); [4]) [%] | inhibition at 0.1 µM (5-lipoxygenase (LTC4); [4]) [%] | inhibition at 0.5 µM (5-lipoxygenase (LTC4); [4]) [%] | also measured
1 | Luffarrellolide [reference compound] |  |  |  |  |  |  | ED50 at +10 min. [1]: Not Active
2 | COc1ccc2cc([C@H](C)C(=O)O)ccc2c1 [Naproxen, reference compound] |  |  |  |  |  |  | ED50 at +10 min. [1]: 18 mg/kg
3 | CCCCCCCC/C=C\CCCCCCCCNC(=O)OC(CCC(=O)C1=C(O)COC1=O)COC/C=C(\C)CCC=C(C)C (stereo not shown) [Example 40] | 96.5 | 91 |  |  |  |  | IC50 (cyclooxygenase (PGE2); Mus musculus, Peritoneal macrophage, zymosan stimulation, read-out: PGE2 zymosan IC50): 800 nM; PGE2 zymosan % Inhibition (cyclooxygenase (PGE2); [3]): 37%; IC50 (5-lipoxygenase (LTC4); Mus musculus, Peritoneal macrophage, zymosan stimulation, read-out: LTC4 zymosan IC50): 800 nM; LTC4 zymosan % Inhibition (5-lipoxygenase (LTC4); [3]): 87%
4 | CCCC[C@@H]1C[C@@H]1CCCCCCCC(=O)C1=C(O)COC1=O (relative stereo) [Example 54, 4-Hydroxy-3-[(Z)-8-(2-butylcyclopropyl)-1-oxooctyl]-2(5H)-furanone] |  |  | 49.5 |  | 59.3 |  | 
5 | CCCCCCNC(=O)OCC(CCC(=O)C1=C(O)COC1=O)OC(=O)NCCCCCC (stereo not shown) [Example 30, Hexylcarbamic acid 5-(2,5-dihydro-4-hydroxy-2-oxo-3-furanyl)-5-oxo-1,2-pentanediyl ester] | 37.4 | 21 |  |  |  |  | inhibition at 1 µM (cyclooxygenase (PGE2); [4]): 45.8%; inhibition at 1 µM (5-lipoxygenase (LTC4); [4]): 41.5%
6 | CCCCCCCC/C=C\CCCCCCCC(=O)OCCCC(=O)C1=C(O)COC1=O [Example 38, (Z)-9-Octadecanoic acid 4-(2,5-dihydro-4-hydroxy-2-oxo-3-furanyl)-4-oxobutanoic ester] | 80.9 | 18.8 |  |  |  |  | inhibition at 1 µM (cyclooxygenase (PGE2); [4]): 75.8%; inhibition at 1 µM (5-lipoxygenase (LTC4); [4]): 46.4%; Topical % Inhibition at 200 μg (TPA-induced ear edema): 23%
7 | CN1CCC(=C2c3ccccc3C=Cc3ccccc32)CC1 [Cyproheptadine, reference compound] |  |  |  |  |  |  | ED50 at +10 min. [1]: 3.1 mg/kg
8 | CCCCCCCC[C@@H]1C[C@@H]1CCCCCCCC(=O)C1=C(O)COC1=O (relative stereo) [Example 19, (Z)-4-Hydroxy-3-(1-oxo-8-(2'-octylcyclopropyl)octanyl)-2(5H)-furanone] | 83 | 88 |  | 68.4 |  | 37.5 | 
9 | CC(Cc1ccc(O)c(O)c1)C(C)Cc1ccc(O)c(O)c1 (stereo not shown) [NDGA, reference compound] |  |  |  |  |  |  | IC50 (cyclooxygenase (PGE2); Mus musculus, Peritoneal macrophage, reference compounds, 95% confidence limits on next line, read-out: IC50 PGE2): 2150 nM; IC50 (5-lipoxygenase (LTC4); Mus musculus, Peritoneal macrophage, reference compounds, 95% confidence limits on next line, read-out: IC50 LTC4): […]

Continued, in another order:

Row | inhibition at 10 µM (human platelet PLA2) [%] | inhibition at 10 µM [2] [%] | Compound | inhibition at 0.1 µM (cyclooxygenase (PGE2); [4]) [%] | inhibition at 0.5 µM (cyclooxygenase (PGE2); [4]) [%] | inhibition at 0.1 µM (5-lipoxygenase (LTC4); [4]) [%] | inhibition at 0.5 µM (5-lipoxygenase (LTC4); [4]) [%] | also measured
10 | 29.7 | 44.4 | CC(C)(C)c1ccc(CCCCCCCCCC(=O)C2=C(O)COC2=O)cc1 [Example 43, 4-Hydroxy-3-[10-[4-(1,1-dimethylethyl)phenyl]1-oxodecyl]-2(5H)-furanone] | 54 | 92 | 71 | 96 | 
11 | 12 | 13 | O=C(CCCCCCCCCc1ccc(Cl)cc1)C1=C(O)COC1=O [Example 41, 4-Hydroxy-3-[10-(4-chlorophenyl)-1-oxodecyl]-2(5H)-furanone] | 29 | 97 | 61 | 90 | 
12 | 1.7 | 6.7 | O=C(CCCCOc1ccc(Cl)cc1)C1=C(O)CSC1=O [Example 49, 4-Hydroxy-3-[5-(4-chlorophenoxy)-1-oxopentyl]-2(5H)-thiophenone] |  | -11.8 |  | -19.7 | 
13 | 63 | 55.6 | O=C(CCCCCCCCCc1ccc(C(F)(F)F)cc1)C1=C(O)COC1=O [Example 45, 4-Hydroxy-3[10-(4-trifluoromethyl)phenyl]-2(5H)-furanone] |  |  |  |  | inhibition at 0.2 µM (cyclooxygenase (PGE2); [5]): 45%; inhibition at 0.2 µM (5-lipoxygenase (LTC4); [5]): 34.5%
14 | 16.1 | 37 | O=C(CCCCCCCCCc1ccc(Br)cc1)C1=C(O)COC1=O [Example 44, 4-Hydroxy-3-[10-(4-bromophenyl)-1-oxodecyl]-2(5H)-furanone] | -20 | 88 | 58 | 94 | 
15 | 6.6 | 22 | O=C(CCCCCCCCCc1ccc(Cl)c(Cl)c1)C1=C(O)COC1=O [Example 42, 4-Hydroxy-3-[10-(3,4-dichlorophenyl)-1-oxodecyl]-2(5H)-furanone] | -8 | 97 | 58 | 70 | 
